Data from patent publication US20250214969A1, “PROTEIN DEGRADERS AND USES THEREOF” (Kymera Therapeutics, Inc., priority 2022, published 2025).

Key:
[1] = biological target: T1, truncated His-MBP-Tev-KLHDC2 (residues 1-363) (Homo sapiens, UniProt Q9Y2U9); test: KLHDC2 HTRF binding assay; conditions: 1 nM KLHDC2 (residues 1-363), fluorescein-labeled diglycine peptide probe
T1 construct: truncated His -MBP-Tev-KLHDC2 (residues 1-363) purified from E. coli; made in house; host or cells: E. coli
T1 sequence (Q9Y2U9 1-363): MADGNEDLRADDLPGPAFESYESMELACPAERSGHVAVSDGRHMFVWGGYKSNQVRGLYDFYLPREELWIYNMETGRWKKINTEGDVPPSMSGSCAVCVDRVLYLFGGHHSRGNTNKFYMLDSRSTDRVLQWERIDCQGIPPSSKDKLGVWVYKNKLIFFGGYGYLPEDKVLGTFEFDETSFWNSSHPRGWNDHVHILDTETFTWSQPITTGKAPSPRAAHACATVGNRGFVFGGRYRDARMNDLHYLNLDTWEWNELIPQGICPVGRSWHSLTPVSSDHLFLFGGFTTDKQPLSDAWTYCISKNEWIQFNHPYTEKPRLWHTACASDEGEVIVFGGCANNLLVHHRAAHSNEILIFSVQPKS

[2] = biological target: T1, truncated His-MBP-Tev-KLHDC2 (residues 1-363); test: KLHDC2 FP competition binding assay; conditions: 15 nM KLHDC2 (residues 1-363), 10 nM fluorescein-labeled diglycine peptide probe, read-out: KLHDC2 binding Human FP: average external IC50
Method: FP competition binding assays were performed using 15 nM truncated His -MBP-Tev-KLHDC2 (residues 1-363) purified from E. coli, 10 nM fluorescein-labeled diglycine peptide probe, and test compounds in assay buffer consisting of 50 mM HEPES-Na pH 7.5, 100 mM NaCl, 2 mM DTT, 0.005% Tween-20 with a final volume of 20 uL. Compound stocks were dissolved at 10 mM in 100% DMSO and 11 point titration with 3 fold serial dilution was performed in black, flat bottom 384 well microplates. Plates were incubated at room temperature for 30 minutes. Plates were centrifuged at 1000 rpm for 1 min, data were collected using an Envision plate reader in fluorescence polarization mode with excitation filter FITC FP at 480 nm, emission filter FITC FP P-pol at 535 nm and FITC FP S-pol at 535 nm. FP signal was calculated using the equation (mP=1000*(S-G*P)/(S+G*P), G-factor=1.0) and % Inhibition was calculated using no-protein controls for 100% inhibition and DMSO only reactions for 0l % inhibition (yes).

SMILES	IC50 [1] [µM]	IC50 [2] [µM]
O=C(O)Cn1ccccc1=O [I-428]	> 5	> 5
O=C(O)CN1C(=O)Cc2ccccc21 [I-224]	> 5	> 5
CC(C)(C)OC(=O)NCCCCCCc1ccc(C(=O)Nc2ccc(=O)n(CC(=O)O)c2)cc1-c1cccnc1 [I-146]	0.05 to 0.5	0.05 to 0.5
O=C(O)Cn1cc(NC(=O)c2ccc(-c3cccnc3)cc2)ccc1=O [I-198]	0.5 to 5	> 5
O=C(O)Cn1cc(NC(=O)[C@@H]2CCCN(c3cccnc3)C2)c(C(F)(F)F)cc1=O [I-63]	0.5 to 5	> 5
O=C(O)Cn1cc(NC(=O)C(c2ccccc2)c2ccccc2)ccc1=O [I-328]	> 5	> 5
CCc1cc(=O)n(CC(=O)O)cc1NC(=O)[C@H]1CCCN(c2cccnc2)C1 [I-50, 2-[4-ethyl-2-oxo-5-[(3S)-1-(3-pyridyl)piperidine-3-carbonyl|amino]-1-pyridyl]acetic acid]	0.05 to 0.5	0.5 to 5
Cc1sc2c(c1C)C(c1ccc(Cl)cc1)=N[C@@H](CC(=O)NCCCCCCc1cc(C(=O)Nc3ccc(=O)n(CC(=O)O)c3)cc(-c3cccnc3)c1)c1nnc(C)n1-2 [I-476]	0.05 to 0.5	< 0.05
NCCCCCCc1cncc(-c2cccc(C(=O)Nc3ccc(=O)n(CC(=O)O)c3)c2)c1 [I-167]	0.05 to 0.5	0.5 to 5
O=C(O)Cn1cc(NC(=O)[C@H]2CN(c3cccnc3)Cc3ccccc32)ccc1=O [I-32]	0.5 to 5	> 5
O=C(O)Cn1cc(NC(=O)c2cccc(-c3cccnc3)c2)c(Cl)cc1=O [I-97]	0.05 to 0.5	0.5 to 5
Cc1sc2c(c1C)C(c1ccc(Cl)cc1)=N[C@@H](CC(=O)NCCCCCCn1ccc3c(C(=O)Nc4ccc(=O)n(CC(=O)O)c4)cccc31)c1nnc(C)n1-2 [I-474]	< 0.05	< 0.05
O=C(O)Cn1cc(NC(=O)COc2ccccc2F)ccc1=O [I-279]	> 5	> 5
O=C(O)Cn1cc(CNC(=O)c2ccccc2)ccc1=O [I-299]	> 5	> 5
N#Cc1ccc(OCC(=O)Nc2ccc(=O)n(CC(=O)O)c2)cc1 [I-270]	> 5	> 5
Cc1ccccc1-c1cccc(C(=O)Nc2ccc(=O)n(CC(=O)O)c2)c1 [I-289]	> 5	> 5
O=C(O)Cn1cc(-c2cccc(CN3CCCCC3)c2)ccc1=O [I-303]	> 5	> 5
Cc1ccc(C)c(-c2cccn(CC(=O)O)c2=O)c1 [I-390]	> 5	> 5

SMILES	IC50 [1] [µM]	IC50 [2] [µM]
O=C(O)Cn1cc(-c2cccc(F)c2)ccc1=O [I-420]	> 5	> 5
CCc1cncc(N2CCC[C@H](C(=O)Nc3ccc(=O)n(CC(=O)O)c3)C2)c1 [I-39]	< 0.05	0.05 to 0.5
Cc1ccc2cc(C(=O)Nc3ccc(=O)n(CC(=O)O)c3)c(C)nc2c1 [I-191]	> 5	> 5
O=C(O)Cn1cc(CC(=O)Nc2ccccc2)ccc1=O [I-306]	> 5	> 5
Cc1ccc(Cl)c(-c2ccc(=O)n(CC(=O)O)c2)c1 [I-342]	> 5	> 5
O=C(O)Cn1cc(NC(=O)COc2ccccn2)ccc1=O [I-264]	> 5	> 5
O=C(O)CC1NC(=O)c2ccccc21 (stereo not shown) [I-231]	> 5	> 5
CC(C)(C)OC(=O)NCCCCCCc1cncc(-c2cccc(C(=O)Nc3ccc(=O)n(CC(=O)O)c3)c2)c1 [I-169]	< 0.05	0.05 to 0.5
O=C(O)Cn1cc(N2CC[C@]3(CCN(c4cccnc4)C3)C2=O)ccc1=O [I-1]	> 5	> 5
O=C(O)Cn1cc(NC(=O)[C@H]2CCCN(c3cncc([N+](=O)[O-])c3)C2)ccc1=O [I-4]	< 0.05	< 0.05
O=C(O)Cn1cc(NC(=O)c2ccc(-c3ccccc3)cc2)ccc1=O [I-212]	0.5 to 5	> 5
Cc1cc(C(=O)Nc2ccc(=O)n(CC(=O)O)c2)sc1-c1ccccc1 [I-297]	0.5 to 5	> 5
O=C(O)Cn1cc(NC(=O)CC2Cc3ccc(Cl)cc3C2=O)ccc1=O (stereo not shown) [I-235]	> 5	> 5
CC(Cc1ccccc1Cl)C(=O)Nc1ccc(=O)n(CC(=O)O)c1 (stereo not shown) [I-310]	> 5	> 5
O=C(O)Cn1cc(-c2ccc(N3CCOCC3)cc2)ccc1=O [I-312]	> 5	> 5
COc1cncc(-c2cccc(C(=O)Nc3ccc(O)c(CC(=O)O)c3)c2)c1 [I-22]	> 5	> 5
CCOC(=O)Cn1cc(NC(=O)c2cccc(-c3cncc(CCCCCCNC(=O)OC(C)(C)C)c3)c2)ccc1=O [I-158]	> 5	> 5
